Experiments:
Type in all cases: cell-based
[1] = system: phosphorylation of AKT and downstream substrates; assay: Western immunoblotting of AKT pathway phosphorylation in AML cell lines; conditions: for Phosphorylation of AKT and its downstream substrates: cell line models of AML, immunoblot (FIG. 1d, FIG. 4b)
AML cells = assay: In vitro drug sensitivity assay (GI50 assay, CellTiter-Glo); conditions: for Chemosensitization of AML cells by inhibitors of alternative PI3K catalytic isoforms (p110α, p110β, p110δ): sensitivity to doxorubicin, S63845 or selinexor (FIG. 3b); for Sensitization of AML cells to the drug by IPI-549 treatment; GI50 of combination vs drug alone: indicated AML cell lines (FIG. 3a-b); for Chemosensitization to the drug mediated by PI3Kγ inhibition with IPI-549: OCI-AML2 cells (FIG. 6)
Method: AML cells were plated in 96-well plates at a density of 5,000-10,000 cells per 100 μL per well. Wells were treated with drug dilution series at the doses indicated and cultured for 72 hours. Subsequently, relative cell viability was approximated using Promega CellTiter-Glo Luminescent Cell Viability Assay, normalized to either DMSO or the indicated background drug. GI50 values where approximated from dose-response curves plotted using GraphPad/Prism 8 software.

phosphorylation of AKT = assay: Conditioned media and SDF1-a cytokine experiments (AKT activation in AML cells)
Method: Serum free RPMI-1640 medium with incubated with a confluent plate of HS-5 cells for 36 hours. Conditioned media was centrifuged at 1200 rpm for 5 minutes and filtered with a 0.45 uM filter to remove any remaining cells. AML cells were incubated with conditioned media with or without IPI-549 for 30 minutes prior to harvesting on ice for lysate preparation. An analogous strategy was performed with SDF-1a (200 ng/mL) containing media. SDF-1a was purchased from ProteinTech and solubilized in water.

`Cc1nc(NC(=O)N2CCC[C@H]2C(N)=O)sc1-c1ccnc(C(C)(C)C(F)(F)F)c1` [BYL-719, Alpelisib] was tested, and the “Phosphorylation of AKT and its downstream substrates” value [1] was “minimally capable of suppressing” and the “Chemosensitization of AML cells by inhibitors of alternative PI3K catalytic isoforms (p110α, p110β, p110δ)” value (AML cells) was “not observed”.

In the case of `C[C@H](NC(=O)c1c(N)nn2cccnc12)c1cc2cccc(C#Cc3cnn(C)c3)c2c(=O)n1-c1ccccc1` [IPI-549], the “Phosphorylation of AKT and its downstream substrates” value [1] is reported as “lost”, the “Correlation of sensitivity (GI50) to IPI-549 with sensitivity to AKT inhibition with MK-2206” value (AML cells; panel of 10 AML cell lines (FIG. 5b-d)) is reported as “strongly correlated” and the “Activation of AKT signaling by media conditioned with human BM-MSCs (HS-5)” value (phosphorylation of AKT; HL-60 (500 nM) and OCI-AML3 (100 nM IPI-549) cells (FIG. 1g)) is reported as “fully precluded”. The “Activation of AKT by SDF1α (CXCL12) stimulation” value (phosphorylation of AKT; serum-deprived AML cells, 200 ng/mL SDF1α, HL-60 500 nM, OCI-AML3 100 nM IPI-549 (FIG. 1h)) was “prevented”.

For `Cc1sc2c(c1C)C(c1ccc(Cl)cc1)=N[C@@H](CC(=O)OC(C)(C)C)c1nnc(C)n1-2` [JQ1], the “Sensitization of AML cells to the drug by IPI-549 treatment; GI50 of combination vs drug alone” value (“Sensitization of AML cells … vs drug alone” below) (AML cells) was “can sensitize”.

With `CC(C)n1nc(-c2ccc3oc(N)nc3c2)c2c(N)ncnc21` [MLN-128] the “Effect on potency of AKT/p110γ inhibition (MK-2206 or IPI-549); GI50 of combination vs single drug” value (AML cells; panel of AML cell lines (FIG. 2d, FIG. 5g)) was “enhanced the potency”.

For `O=C(Nc1ccc2[nH]nc(-c3ccncc3)c2c1)[C@@H]1CCN(CC(=O)N2CCN(c3ccc(-c4ncccn4)cc3)CC2)C1` [SCH772984], the “Sensitization of AML cells … vs drug alone” value (AML cells) was “can sensitize”.

For `Cc1cc(C(C)Nc2ccccc2)c2nc(N3CCOCC3)cc(=O)n2c1` (stereo not drawn) [TGX-221], the “Chemosensitization of AML cells by inhibitors of alternative PI3K catalytic isoforms (p110α, p110β, p110δ)” value (AML cells) was “not observed”.

For `Nc1ncn([C@@H]2O[C@H](CO)[C@@H](O)[C@H]2O)c(=O)n1` [azacytidine], the “Chemosensitization to the drug mediated by PI3Kγ inhibition with IPI-549” value (AML cells) was “not observed”.

For `Cc1c(-c2c(-c3ccc(F)o3)sc3ncnc(O[C@H](Cc4ccccc4OCc4ccnn4CC(F)(F)F)C(=O)O)c23)ccc(OCCN2CCN(C)CC2)c1Cl` [compound 563845], the “Sensitization of AML cells … vs drug alone” value (AML cells) was “can sensitize”.

`Nc1ccn([C@@H]2O[C@H](CO)[C@@H](O)[C@@H]2O)c(=O)n1` [cytarabine] was tested, and the “Chemosensitization to the drug mediated by PI3Kγ inhibition with IPI-549” value (AML cells) was “not observed”.

`COc1cccc2c1C(=O)c1c(O)c3c(c(O)c1C2=O)C[C@@](O)(C(C)=O)C[C@@H]3O[C@H]1C[C@H](N)[C@H](O)[C@H](C)O1` [daunorubicin] was tested, and the “Daunorubicin sensitivity under p110α inhibition; GI50 of combination vs daunorubicin alone” value (AML cells; any of the AML models tested (FIG. 2e; legend prints BYL-549)) was “did not alter”, the “Daunorubicin sensitivity under p110γ inhibition (IPI-549); GI50 of combination vs daunorubicin alone” value (AML cells; in 9/10 AML cell lines tested (FIG. 2e)) was “significantly potentiated” and the “Sensitization of AML cells … vs drug alone” value (AML cells) was “can sensitize”.

`CC(=O)O[C@@]12CO[C@@H]1C[C@H](O)[C@@]1(C)C(=O)[C@H](O)C3=C(C)[C@@H](OC(=O)[C@H](O)[C@@H](NC(=O)OC(C)(C)C)c4ccccc4)C[C@@](O)([C@@H](OC(=O)c4ccccc4)[C@H]21)C3(C)C` [docetaxel] was tested, and the “Chemosensitization to the drug mediated by PI3Kγ inhibition with IPI-549” value (AML cells) was “not observed”.

`COc1cccc2c1C(=O)c1c(O)c3c(c(O)c1C2=O)C[C@@](O)(C(=O)CO)C[C@@H]3O[C@H]1C[C@H](N)[C@H](O)[C@H](C)O1` [doxorubicin] was tested, and the “Sensitization of AML cells … vs drug alone” value (AML cells) was “can sensitize”.

With `COc1cc([C@@H]2c3cc4c(cc3[C@@H](O[C@@H]3O[C@@H]5CO[C@@H](C)O[C@H]5[C@H](O)[C@H]3O)[C@H]3COC(=O)[C@H]23)OCO4)cc(OC)c1O` [etoposide] the “Sensitization of AML cells … vs drug alone” value (AML cells) was “can sensitize”.

`CN1CC[C@@H](NC(=O)Nc2ccc(C#N)cc2)C[C@@H]1c1nc2ccccc2[nH]1` [glasdegib] was tested, and the “Chemosensitization to the drug mediated by PI3Kγ inhibition with IPI-549” value (AML cells) was “not observed”.

With `CC(=O)[C@]1(O)Cc2c(O)c3c(c(O)c2[C@@H](O[C@H]2C[C@H](N)[C@H](O)[C@H](C)O2)C1)C(=O)c1ccccc1C3=O` [idarubicin] the “Sensitization of AML cells … vs drug alone” value (AML cells) was “can sensitize”.

`CN(Cc1cnc2nc(N)nc(N)c2n1)c1ccc(C(=O)N[C@@H](CCC(=O)O)C(=O)O)cc1` [methotrexate] was tested, and the “Chemosensitization to the drug mediated by PI3Kγ inhibition with IPI-549” value (AML cells) was “not observed”.

With `O=C1[O][Pt]2([NH][C@@H]3CCCC[C@H]3[NH]2)[O]C1=O` [oxaliplatin] the “Chemosensitization to the drug mediated by PI3Kγ inhibition with IPI-549” value (AML cells) was “not observed”.

For `CC(C)(C)c1cc(NC(=O)Nc2ccc(-c3cn4c(n3)sc3cc(OCCN5CCOCC5)ccc34)cc2)no1` [quizartinib], the “Sensitization of AML cells … vs drug alone” value (AML cells) was “can sensitize”.

In the case of `O=C(/C=C\n1cnc(-c2cc(C(F)(F)F)cc(C(F)(F)F)c2)n1)NNc1cnccn1` [selinexor], the “Sensitization of AML cells … vs drug alone” value (AML cells) is reported as “can sensitize”.

For `CNC(=O)c1cc(Oc2ccc(NC(=O)Nc3ccc(Cl)c(C(F)(F)F)c3)cc2)ccn1` [sorafenib], the “Sensitization of AML cells … vs drug alone” value (AML cells) was “can sensitize”.

With pertussis toxin the AKT phosphorylation ([1]; AML cell lines, Ptx 100 ng/mL for 24 hours (FIG. 1f)) was “diminished”.

From US20230201202A1, “COMPOSITIONS AND METHODS FOR SENSITIZING ACUTE MYELOID LEUKEMIAS TO CHEMOTHERAPY” (Duke University, priority 2020, published 2023)
